From PubChem BioAssay (NCI)
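96-well plates; 48 h exposure; 5 concentrations. Endpoints by linear interpolation between flanking doses. Not reached: highest tested concentration assigned. TGI is the concentration that stops growth completely.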 Where a SMILES comes first, the peptide text is derived from it.

Experiments:
Test in all cases: DTP human tumour cell line panel, 48 h
786-0 renal = system: 786-0 renal
A549 NSCLC = system: A549 NSCLC
BT-549 breast = system: BT-549 breast
CCRF-CEM leukemia = system: CCRF-CEM leukemia
HCC-2998 colon = system: HCC-2998 colon
HCT-116 colon = system: HCT-116 colon
HCT-15 colon = system: HCT-15 colon
HS 578T breast = system: HS 578T breast
HT29 colon = system: HT29 colon
MALME-3M melanoma = system: MALME-3M melanoma
MCF7 breast = system: MCF7 breast
MDA-MB-231 breast = system: MDA-MB-231 breast
MOLT-4 leukemia = system: MOLT-4 leukemia
NCI-H522 lung = system: NCI-H522 lung
SF-268 CNS = system: SF-268 CNS
SF-295 CNS = system: SF-295 CNS
SK-MEL-2 melanoma = system: SK-MEL-2 melanoma
U251 CNS = system: U251 CNS
HOP-92 NSCLC = system: HOP-92 NSCLC

SMILES	TGI (786-0 renal) [µM]	TGI (A549 NSCLC) [µM]	TGI (BT-549 breast) [µM]	TGI (CCRF-CEM leukemia) [µM]	TGI (HCC-2998 colon) [µM]	TGI (HCT-116 colon) [µM]	TGI (HCT-15 colon) [µM]	TGI (HS 578T breast) [µM]	TGI (HT29 colon) [µM]	TGI (MALME-3M melanoma) [µM]	TGI (MCF7 breast) [µM]	TGI (MDA-MB-231 breast) [µM]	TGI (MOLT-4 leukemia) [µM]	TGI (NCI-H522 lung) [µM]	TGI (SF-268 CNS) [µM]	TGI (SF-295 CNS) [µM]	TGI (SK-MEL-2 melanoma) [µM]	TGI (U251 CNS) [µM]	TGI (HOP-92 NSCLC) [µM]
Nc1ccc2nc3n(c2c1)C(c1c(F)cccc1F)SC3 (configuration not stated)	> 100	> 100	> 100	> 100	> 100	> 100	> 100	> 100	> 100	> 100	> 100	> 100	> 100	> 100	> 100	> 100	> 100	> 100	
Cc1ccc2c(ccc3ncc(CNc4ccc(NS(C)(=O)=O)cc4)c32)[nH]1	39.4	66	> 100	> 100		37.9	> 100	59.9	93.6	34.5	44.5	74.5	44.7	35.5	52.5	59.2	38.5	72.2	90.3
CC(C)(C)n1[nH]c(=O)n(C(C)(C)C)c1=O	> 100	> 100	> 100		> 100	> 100	> 100	> 100			> 100	> 100	> 100		> 100	> 100	> 100	> 100	> 100
C/C1=C\[C@@H](C)C[C@@H](C)OC(=O)[C@@H](C)NC(=O)[C@H](Cc2ccc(O)c(Br)c2)N(C)C(=O)CNC(=O)[C@H](C)C1	5.84	> 100	2.16	< 0.01	70.1	> 55.2	44.2	0.69	> 100	9.83	> 100	5.34	> 64.1		1.89	5.55	25.6	5.34	0.0993
Cc1cc(C)n(CN(CCCCO)Cn2nc(C)cc2C)n1	36.7	> 100	71.2	1.74		36.4	34.7	> 100	37.1	57.3	68.3	78.6	50.7	48.1	65.2	> 100	41.7	49.9	81
O=C(O)CN1CCN2CCCCCCCCN(CC1)CCN(CC(=O)O)CC2	> 100	> 100	> 100	> 100		> 100	> 100	> 100	> 100	> 100	> 100	> 100	> 100	> 100		> 100	> 100	> 100	> 100
CC1(C)CC[C@]2(C)[C@@H](O)C[C@]3(C)C(=CC[C@@H]4[C@@]5(C)CC[C@H](O)C(C)(C)[C@@H]5CC[C@]43C)[C@@H]2C1	> 100	> 100	> 100	> 100		> 100	> 100	99.3	> 100	86.9	> 100	48.6	> 100	> 100	> 100	> 100	80.7	> 100	42.3
C=C(C)[C@@]12C[C@H](OC(=O)[C@H](O)[C@@H](NC(=O)c3ccccc3)c3ccccc3)C(C)=C1[C@@H](OC(C)=O)C(=O)[C@@]1(C)C([C@@H]2OC(=O)c2cc(F)cc(F)c2)C2(OC(C)=O)CO[C@@H]2C[C@@H]1O (some centres not stated)	3.3	> 6.61	2.99	0.355	2.16	1.22	> 5.21	0.215	1.4	> 8.81	> 10	2.22	1.24		> 7.16	> 10	2.28	> 5.16	> 10
Cc1cn(CC2(CO)CCC2)c(=O)[nH]c1=O	> 100	> 100	> 100	> 100	> 100	> 100	> 100	> 100	> 100	> 100	> 100	> 100	> 100	> 100		> 100	> 100	> 100	
COc1ccc(C/C=C(\C)CCO)cc1	> 100	> 100	> 100	> 100		> 100	> 100	> 100	> 100		> 100	> 100	> 100	> 100	> 100	> 100	> 100	> 100	> 100
Cc1ccc(F)c2[nH]c(-c3ccccc3)cc(=O)c12	> 43.4	> 53.5	> 100	> 100	> 100	> 100	> 100	> 100	> 100	> 100	> 20.4	> 100	> 100	38.1	> 67	43.5	> 100	> 100	
CC(=O)OCCCCn1nncc1Cn1ccc(=O)n(Cc2cnnn2CCCCOC(C)=O)c1=O	> 100	> 100	> 100	2.61	> 100	> 100	> 100	> 100		> 100	> 100	> 100	> 100		> 100	> 100	> 100	> 100	> 100
COc1ccc(/C(=N/OCCCC(=O)O)c2cccs2)cc1	> 100	> 100	> 100	> 100	> 100	> 100	> 100	> 100	> 100	> 100	> 100	> 100	> 100		> 100	> 100	> 100	> 100	> 100
CC(=O)OC(OC(C)=O)c1c2ccccc2cc2ccccc12	43.5	65.9	32.9	18	40.5	28.3	56	78.3	28.6		40.7	40.1	16.9		51.8	45.3		> 100	57.5
COc1ccc(CC2Cc3ccccc3CC(=O)N2)cc1OC (configuration not stated)	> 100	> 100	> 100	> 100	> 100	> 100	> 100	> 100	> 100	> 100	> 100	> 100	65			> 100	> 100	> 100	> 100
COc1c(C)c(C/C=C(\C)CC/C=C(\C)CC/C=C(\C)CC/C=C(\C)CCC=C(C)C)c(OC)c(OC)c1OC	31.8	48.1	> 100	53.8		> 100	> 100	> 100	> 100		> 100	> 100	> 100	31.4	39.4	44.2	> 100	> 100	31.8
COC(=O)c1ccc(NCC2=CC(=O)C=CC2=O)cc1O	31.4	> 100	25.1	> 100		33.8	34.5	> 100	38.6	28.6	76.3	34.7	> 100		> 100	32.3	> 100	> 100	9.27
COc1ccccc1N1C(=O)CSC1c1cccc(Oc2ccccc2)c1 (configuration not stated)	32.5	47.4	31.9	> 100		31.5	37.4	44.5	46.7	30.6	37.1	32.4	64.8	34.7	36.3	41.1	29.9	30.7	26.5
O=C1C=CC(=O)c2c(O)c(NCCN3CCOCC3)c(Cl)c(O)c21	5.47	4.96	3.98	4.46	3.35	3.17	3.87	6.54	4.7	3.31	2.96	6.43	3.89		6.12	3.41		6.97	6.39
C1=C2C3=[N+](CCCC3)CC2Cc2sccc21 (configuration not stated)	> 100	> 100	> 100	> 100		> 100	> 100	> 100	> 100	> 100	> 100	> 100	> 100	> 100	> 100	> 100	> 100	> 100	> 100
O=P(O)(O)c1ccc2c(c1)OCCOCCOCCOCCO2	> 100	> 100	> 100	> 100	> 100	> 100	> 100	> 100	> 100	> 100	> 100	> 100	> 100	> 100	> 100	> 100			
CC(C)(C)c1ccc(NS(=O)(=O)c2ccc(N)cc2)cc1	52.1	> 100	54.8	40.2	39.5	34.7	> 100	59.3	35.3	39.6	39	68.1	34.5	38.7	78.2	14	36.5	39.2	
CC(=O)NC(CS)C(=O)NC(CO)C(=O)NC(CO)C(=O)NC(Cc1c[nH]c2ccccc12)C(=O)N1CCCC1C(=O)NC(CO)C(=O)NC(Cc1c[nH]c2ccccc12)C(=O)NC(Cc1c[nH]cn1)C(=O)NC(CO)C(=O)NC(Cc1c[nH]c2ccccc12)C(=O)NCC(=O)NCC(=O)NC(C)C(=O)NC(CCC(N)=O)C(=O)NC(CCCCN)C(=O)NC(C)C(=O)NC(CCCNC(=N)N)C(=O)NC(CCCCN)C(N)=O (configuration not stated) (Ac-CSSWPSWHSWGGAQKARK-NH2; configuration not given here)	19.5	> 50	41	> 50		> 50	> 50	> 50	> 50	20.3	> 50	19.7	> 50	> 50	49.6	> 50	> 50	27.7	> 50
CCCCCCCCCCCCCC(=O)OCC(CCS(=O)(=O)O[C@H]1CC[C@@]2(C)C(=CC[C@@H]3C2CC[C@]2(C)C(=O)CCC32)C1)OC(=O)CCCCCCCCCCCCC (some centres not stated)	> 100	> 100	> 100	> 100	> 100	> 100	> 100	> 100	> 100	> 100	> 100	> 100			> 100	> 100	> 100	> 100	> 100
C[n+]1c2ccccc2n2c3ccccc3c(NCc3ccco3)c(C#N)c21	12.8	> 100	> 100		3.36	14.7	4.34	10.8	> 100	7.59	11.9	16.6		2.83	11.3	16.6	6.51	13	
